From US11147792B2, “Inhibitors of microbially induced amyloid” (Axial Therapeutics, Inc, priority 2017, dated 2021)

Key:
[1] = biological target: T1, α-synuclein seeded by E. coli CsgA (Homo sapiens, UniProt P37840); assay: In vitro Thioflavin T assay of CsgA-seeded α-synuclein aggregation; format: biochemical; details: compounds at 50 μM; 2 μM CsgA, 50 μM α-synuclein; ThT fluorescence at 40 hours; read-out: Inhibition of Aggregation CsgA-seeded αSyn
T1 construct: made in house; host or cells: E. coli NEB 3016 slyD::kan (CsgA, pET11d); E. coli (α-synuclein)
Experimental: In Vitro Thioflavin T Assay to Determine the Effects of Compounds on CsgA-Seeded α-Synuclein Aggregation.
To induce over-expression of CsgA, 0.5 mM IPTG was added to cultures with an optical density at 600 nm (OD600) of 0.8-1, and induced cells were cultured at 37° C. for 1 hour prior to harvest via centrifugation. […] Buffers with imidazole were freshly prepared prior to the protein purification. Purified CsgA was passed through a 30 kDa molecular weight cut-off filter and through a desalting column. All steps of the CsgA purification in the absence of guanidine hydrochloride were conducted in rapid succession with as little delay as possible. […] The ammonium sulfate pellet was washed with an equal volume of 100 mM ammonium acetate in ethanol, pelleted via centrifugation, washed twice with ethanol, dried overnight, resuspended in 10 mM Tris pH 7.4, and passed through a 50 kDa cut-off column. The assay was conducted in 96-well black microplates with a single glass 2 mm bead per well, 40 μM ThioflavinT, 1% DMSO, 2 μM CsgA, 50 μM α-synuclein, 100 mM sodium chloride, 9.3 mM potassium phosphate pH 7.3, and compounds at 50 μM. […] The effect of compounds on CsgA-seeded α-synuclein aggregation in the assay was determined with data from 40 hours, following the plateau of the fluorescent signal in the untreated (no compound) control wells containing CsgA and α-synuclein. Fluorescence values for each compound with CsgA and α-synuclein were first adjusted by subtracting the average fluorescence of the compound in the absence of CsgA and α-synuclein.

[2] = test system: Thy1-αSyn mice (ASO) mono-colonized with WT E. coli; assay: Motor function of germ-free Thy1-αSyn (ASO) mice mono-colonized with WT E. coli, EGCG in drinking water; format: in vivo, mouse; details: EGCG ad lib in drinking water vs vehicle
Experimental: Evidence has linked unregulated α-synuclein expression in humans to a higher risk of PD, providing an epidemiological foundation for the Thy1-α-synuclein mouse model. Defects in coordinated motor tasks become evident at 12 weeks of age. Motor function is measured via four tests: beam traversal, pole descent, nasal adhesive removal, and hind limb clasping reflexes, as previously validated in this model (described in Fleming et al., J. Neurosci. 24, 9434-9440 (2004), and Sampson et al., Cell 167(6):1469-1480 (2016) the content of which are hereby expressly incorporated by reference in its entirety). […] Removal of an adhesive from the nasal bridge, a test of fine motor control, is also impaired in SPF-ASO mice compared to SPF-WT mice, as is the hind limb clasping reflex, a measure of striatal dysfunction.
Germ-free Thy1-αSyn mice (ASO) mono-colonized with WT E. coli at 5-6 weeks of age, and given water alone (Vehicle: Veh) or treated with EGCG ad lib in drinking water (+EGCG). RNA was extracted from fecal pellets and csgA expression quantified by qRT-PCR, relative to rrsA. FIG. 1C is a graph showing fold-change in csgA expression. Motor function was assessed at 15-16 weeks of age by quantifying beam traversal time (FIG. 1D), pole descent time (FIG. 1E), nasal adhesive removal time (FIG. 1F), hindlimb clasping score (FIG. 1G), and wire hang tests (FIG. 1H). Time to cross, time to descent, time to remove, and hindlimb score were lower in the EGCG-treated mice, while time to fall was higher in the EGCG-treated mice compared to vehicle treated control.
Inhibition of functional amyloid formation was studied. Germ-free Thy1-αSyn mice (ASO) were monocolonized with wild-type E. coli and treated with water alone (Vehicle, Veh) or given EGCG ad lib in drinking water (+EGCG). Motor function was assessed at 10, 12, and 15 weeks of age by quantifying beam traversal time (FIG. 5A), pole descent time (FIG. 5B), nasal adhesive removal time (FIG. 5C), hindlimb clasping score (FIG. 5D), and wire hang tests (FIG. 5E). FIG. 5F depicts principal component analysis of compiled motor scores from FIGS. 5A-D. Thin sections of brain were stained for Iba1 (microglia) and morphological characteristics quantified of microglia resident in the striatum (FIGS. 5G-H) and substantia nigra (FIGS. 5I-J). N=10-11 (FIGS. 5A-F), n=3 (FIGS. 5G-J) (averaged from 5-7 cells for branching). Bars represent the mean and standard error. Time courses analyzed by two-way ANOVA, with Sidak post-hoc test for between group comparisons indicated above individual time points, and brackets indicating significance between treatments. Data in (FIGS. 5G-J) analyzed by two-tailed t-test. *p≤0.05; **p≤0.01; ****p≤0.0001.

## O=C(O[C@@H]1Cc2c(O)cc(O)cc2O[C@@H]1c1cc(O)c(O)c(O)c1)c1cc(O)c(O)c(O)c1 [EGCG, epigallocatechin gallate]
[1]
  inhibition at 50 µM: 77%
[2]
  progressive motor deficits exacerbated by E. coli (motor performance): successfully dampens progressive motor deficits
[2]; 15-16 weeks of age
  beam traversal time (time to cross): lower
  hindlimb clasping score: lower
  nasal adhesive removal time (time to remove): lower
  pole descent time (time to descent): lower
  wire hang test (time to fall): higher
